Measured values reported in patent US6444870B1, “Methods for assessing the role of calcineurin immunosuppression and neurotoxicity” (President and Fellows of Harvard College, priority 1995, dated 2002).

Columns and labels:
calcineurin = experiment: Calcineurin phosphatase assay in T cell extracts (okadaic acid resistant, EGTA-sensitive phosphatase activity); type: biochemical, mouse
Protocol: Spleen and lymph nodes were harvested from wild type and mutant mice and were dispersed into single cell suspension. Red blood cells were removed by lysis. The final concentrations were adjusted to 1.5-2.0×10^8 cells suspended in 2 ml of PBS containing 5% fetal calf serum and 4 mM EDTA. The cell suspensions were enriched for T cells using Mouse T Cell Enrichment Column (R&D Systems). T cells were then lysed with lysis buffer containing 50 mM Tris-HCl, pH 7.5, 15% glycerol, 0.1 mM EGTA, 1 mM EDTA, 0.5 mM DTT, […] PMSF, 50 μg/ml soybean trypsin inhibitor, 5 μg/ml aprotinin, 5 μg/ml leupeptin. Aliquots of 8×10^6 cells per 50 μl of lysis buffer were frozen until further analysis.
The phosphatase assay is a modified version of a previously described procedure (Manalan and Klee, 1983; Liu, 1991). The reaction mixture (total volume 60 μl) contained 50 mM MES (pH6.0), 100 mM NaCl, 6 mM Mg(OAc)2, […], […] (Fraction V), […] okadaic acid (Calbiochem), […] [^33P] RII peptide (600 cpm/pmole), and T cell or brain extract. […] of the terminated reaction mixture was applied per well, washed and counted in a Top-Count scintillation counter (Packard Instrument Co.). […]
Residual calcineurin activity, (i.e., okadaic acid resistant and EGTA-sensitive phosphatase activity) was measured in the same CNAα^−/− T cell extracts (Martin and Wiederrecht, in press). […]

T cells = experiment: Mitogenic stimulation of T cells: proliferation and IL-2 and IL-4 production, drug sensitivity; type: cell-based, mouse
Excerpt: We tested the responses of the wild type and mutant T cells to mitogenic stimulation with phorbol 12-myristate 13 acetate (PMA) plus ionomycin, concanavalin A (ConA), and anti-CD3ε antibodies. All three mitogens induced the CNAα^−/− T cells to proliferate as rapidly as the wild type T-cells. Further, stimulated mutant and wild type T cells produced the same amounts of IL-2 and IL-4 and expressed normal level of IL-2 receptor on the surface. Thus, CNAα^−/− T cells appeared to be functional when stimulated by mitogens in vitro.
We tested the drug sensitivity of the CNAα^−/− T cells. […] CNA^−/− T cells were even more sensitive to these drugs than normal T cells, with a IC50 of 2-7 fold lower than that of the wild type T cells.

## FK506
calcineurin; CNAα−/− mutant T cell extracts
  inhibition of (residual) calcineurin phosphatase activity: 90-95%
calcineurin; wild type T cell extracts
  inhibition of calcineurin phosphatase activity: 90-95%
T cells; CNAα−/− T cells
  proliferation and lymphokine production of CNAα−/− T cells, inhibitability: fully inhibitable
T cells; CNAα−/− and wild type T cells stimulated with PMA plus ionomycin, ConA, or αCD3ε antibody
  inhibition of T cells as measured by proliferation and by IL-2 and IL-4 production: inhibited
